The results in this text go back to ChEMBL document CHEMBL1201862, “PubChem BioAssay data set” (2004).

Some test systems named below: MCF7; HOP-92; CAKI-1; EKVX; SK-OV-3; Hs-578T; MDA-MB-231; PC-3; SR; UACC-62; ACHN; A498; UACC-257; HCC 2998; SK-MEL-5; CCRF-CEM; T47D; MDA-N; RXF 393; MDA-MB-435.
What all share (test): DTP human tumour cell line panel, 48 h

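In this assay, cells in 96-well plates receive the compound at five concentrations for 48 hours. Endpoints are linearly interpolated between the surrounding concentrations. GI50 = concentration required for 50% inhibition of growth.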 Activity calls are given as the source filed them. Rule as the data show it: active = GI50 up to about 1.1 µM and inactive = higher.

As a reminder, the GI50 is the concentration that inhibits growth by half.

Take `CCOC(=O)c1cc([N+](=O)[O-])c(Sc2ncnc3nc[nH]c23)c([N+](=O)[O-])c1`: the GI50 in the experiment with MCF7 was 1.24 µM (inactive); in the experiment on HOP-92 it was 1.03 µM (active); in the experiment on CAKI-1 it was 2.37 µM (inactive); in the experiment with EKVX it was 4.92 µM (inactive); in the experiment on SK-OV-3, 0.308 µM (active); in the experiment with Hs-578T it was 9.64 µM (inactive). Further, the GI50 in the experiment with MDA-MB-231 was 4.92 µM (inactive); with PC-3, 9.82 µM (inactive); in the experiment with SR it was 3.24 µM (inactive); with UACC-62 it was 2.46 µM (inactive); in the experiment on ACHN it was 6.85 µM (inactive); in the experiment on A498, 12.7 µM (inactive). Moreover, the GI50 in the experiment on UACC-257 is 7.28 µM (inactive); with HCC 2998 it was 17.8 µM (inactive); in the experiment with SK-MEL-5, 10.7 µM (inactive); in the experiment with CCRF-CEM, 1.27 µM (inactive); with T47D it was 2.96 µM (inactive); in the experiment on MDA-N, 2.75 µM (inactive). In addition, the GI50 is 9.59 µM (inactive) in the experiment on RXF 393 and 2.47 µM (inactive) in the experiment on MDA-MB-435.

On to `C/C(=N\O)C1CC2C=C(C#N)C1N(Cc1ccccc1)C2` (stereo not given), for which the GI50 in the experiment with MCF7, in the experiment on HOP-92, in the experiment on CAKI-1, with EKVX, with SK-OV-3 and with Hs-578T was > 100 µM (inactive) in each case. Also, the GI50 in the experiment on MDA-MB-231 was > 100 µM (inactive); in the experiment on PC-3, > 100 µM (inactive); with SR, > 100 µM (inactive); in the experiment with UACC-62 it was > 100 µM (inactive); in the experiment with ACHN, 93.8 µM (inactive); with A498 it was > 100 µM (inactive). For the same compound, the GI50 in the experiment on UACC-257 was > 100 µM (inactive); in the experiment with HCC 2998, 80.5 µM (inactive); in the experiment on SK-MEL-5, > 100 µM (inactive); in the experiment on CCRF-CEM it was > 100 µM (inactive); in the experiment with T47D it was > 100 µM (inactive); with MDA-N, > 100 µM (inactive). The GI50 in the experiment on RXF 393 and with MDA-MB-435 was > 100 µM (inactive) in each case.

For `CC1=NN2C(=N)/C(=C/c3ccco3)C(=O)N=C2S1`, the GI50 with MCF7 is > 100 µM (inactive); in the experiment with HOP-92 it was 65.5 µM (inactive); in the experiment on CAKI-1 it was > 100 µM (inactive); with EKVX it was > 100 µM (inactive); in the experiment with SK-OV-3, > 100 µM (inactive); in the experiment with Hs-578T, > 100 µM (inactive). The GI50 is > 100 µM (inactive) in the experiment with MDA-MB-231; > 100 µM (inactive) with PC-3; 50.4 µM (inactive) in the experiment on SR; > 100 µM (inactive) with UACC-62; > 100 µM (inactive) in the experiment on ACHN; > 100 µM (inactive) in the experiment on A498. For the same compound, the GI50 in the experiment on UACC-257, with HCC 2998, in the experiment on SK-MEL-5, with CCRF-CEM, in the experiment with T47D and in the experiment on MDA-N was > 100 µM (inactive) throughout. In addition, the GI50 with RXF 393 and with MDA-MB-435 was > 100 µM (inactive) throughout.

Take `Cc1ccc(NC(=O)CCc2nnc3s/c(=C\C=C\c4ccccc4)c(=O)n23)cc1`: the GI50 in the experiment with MCF7 was > 71.4 µM (inactive); in the experiment on HOP-92 it was > 83 µM (inactive); in the experiment on CAKI-1 it was > 100 µM (inactive); with EKVX it was > 100 µM (inactive); in the experiment on SK-OV-3 it was > 100 µM (inactive); with Hs-578T it was > 78 µM (inactive). Besides, the GI50 was > 100 µM (inactive) with MDA-MB-231; > 100 µM (inactive) in the experiment on PC-3; 7.29 µM (inactive) in the experiment with SR; 80.4 µM (inactive) in the experiment on UACC-62; > 100 µM (inactive) in the experiment with ACHN; > 94.4 µM (inactive) in the experiment with A498. For the same compound, the GI50 is > 95.7 µM (inactive) in the experiment on UACC-257; > 100 µM (inactive) in the experiment with HCC 2998; > 95.5 µM (inactive) with SK-MEL-5; 27.8 µM (inactive) in the experiment on CCRF-CEM; > 31.6 µM (inactive) in the experiment with T47D; > 79.1 µM (inactive) in the experiment on MDA-N. Further, the GI50 in the experiment with RXF 393 is > 81.8 µM (inactive); in the experiment on MDA-MB-435, > 86.5 µM (inactive).

`N=c1nc2n(cc1F)[C@@H]1O[C@H](CO)[C@@H](O)[C@@H]1O2`: the GI50 in the experiment with MCF7 was 1.14 µM (inactive); with HOP-92, 11.3 µM (inactive); in the experiment with CAKI-1, 3.45 µM (inactive); with EKVX it was > 100 µM (inactive); in the experiment with SK-OV-3, 8.55 µM (inactive); with Hs-578T, > 100 µM (inactive). Further, the GI50 in the experiment with MDA-MB-231 was > 100 µM (inactive); with PC-3, > 100 µM (inactive); in the experiment on SR, 0.424 µM (active); with UACC-62, > 92.5 µM (inactive); with ACHN, 2.12 µM (inactive); with A498, 13.4 µM (inactive). For the same compound, the GI50 is > 23.6 µM (inactive) in the experiment with UACC-257; > 56 µM (inactive) in the experiment on HCC 2998; 35.4 µM (inactive) in the experiment on SK-MEL-5; < 0.0122 µM (active) in the experiment on CCRF-CEM; 18.4 µM (inactive) in the experiment with T47D; > 100 µM (inactive) with MDA-N. In addition, the GI50 with RXF 393 is > 40.7 µM (inactive); in the experiment with MDA-MB-435, 0.658 µM (active).

In the case of `COC(=O)c1ccc(NCc2cc(O)ccc2O)cc1O`, the GI50 was 6.67 µM (inactive) with MCF7; 11.2 µM (inactive) in the experiment on HOP-92; 6.78 µM (inactive) in the experiment with CAKI-1; 13.5 µM (inactive) in the experiment on EKVX; 13.9 µM (inactive) with SK-OV-3; 15.7 µM (inactive) in the experiment with Hs-578T. Further, the GI50 in the experiment on MDA-MB-231 is 11 µM (inactive); in the experiment with PC-3, 4.89 µM (inactive); in the experiment on SR, 5.48 µM (inactive); in the experiment on UACC-62 it was 13.1 µM (inactive); with ACHN, 9.68 µM (inactive); in the experiment with A498, 20.7 µM (inactive). In addition, the GI50 with UACC-257 was 15.7 µM (inactive); with HCC 2998 it was 13.8 µM (inactive); with SK-MEL-5 it was 12.6 µM (inactive); in the experiment on CCRF-CEM, 0.877 µM (active); in the experiment with T47D it was 3.4 µM (inactive); in the experiment on MDA-N it was 10.7 µM (inactive). Further, the GI50 in the experiment with RXF 393 is 7.28 µM (inactive); in the experiment on MDA-MB-435, 11.1 µM (inactive).

With `C/C(=N\Nc1nc2ccccc2[nH]1)c1ccncn1`, the GI50 in the experiment on MCF7 was 0.152 µM (active); in the experiment with HOP-92 it was 0.0715 µM (active); with CAKI-1 it was 0.123 µM (active); in the experiment on EKVX, 0.133 µM (active); in the experiment with SK-OV-3 it was 0.49 µM (active); with Hs-578T, 80 µM (inactive). For the same compound, the GI50 in the experiment on MDA-MB-231 was 3.64 µM (inactive); in the experiment with PC-3, 2.61 µM (inactive); in the experiment with SR, 0.0811 µM (active); with UACC-62 it was 0.0764 µM (active); with ACHN, 0.0441 µM (active); with A498 it was 0.237 µM (active). The GI50 in the experiment with UACC-257 is 1.41 µM (inactive); in the experiment on HCC 2998, 18.5 µM (inactive); in the experiment on SK-MEL-5, 0.157 µM (active); in the experiment with CCRF-CEM, 0.0776 µM (active); in the experiment with T47D it was 0.103 µM (active); with MDA-N, 0.698 µM (active). Besides, the GI50 in the experiment on RXF 393 is 0.413 µM (active); in the experiment on MDA-MB-435, 0.154 µM (active).
